Article PMC10827914 (Cellular and Molecular Life Sciences: CMLS, 2024)
Where “and” joins values, the source holds several entries; their conditions need not be identical. Equal entries are not always repeated. Entries after “also recorded” stand apart in the source; their conditions may differ. Where a SMILES comes first, the peptide text is derived from it. Bridges are numbered along the chain shown (N, C = ends). Where no end group is shown, it is not given here.

How the values were obtained:
rCD13 = assay: Proteolytic effect of rCD13 on peptide G4 (mass spectrometry); type: in vitro ADME, human; settings: G4 Lot #B 10 mM in 60 mM Tris-HCl pH 7.4; rCD13 0, 0.2, 2 µg/mL; 0, 0.5, 16 h; 37 °C; high resolution mass spectrometry
Method: Peptide G4 (Lot #B, synthetized and analyzed in-house) (10 mM, in 60 mM Tris-HCl, pH 7.4) was incubated with various amounts of rCD13 (0, 0.2 and 2 µg/mL) for 0, 0.5 and 16 h, as indicated, at 37°C. The enzyme activity was stopped by adding 10% acetic acid. Each sample was then desalted using Zip-tip C18 columns (Merck Millipore), dried in a SAVANT centrifuge, resuspended in 8 µl of 10% formic acid, and analyzed by high resolution mass spectrometry, using a Q-Exactive mass spectrometer (Thermo Scientific, Bremen, Germany) equipped with a nano-electrospray ion source (Proxeon Biosystems). Full scan spectra were acquired with the resolution set to 70000 and mass range from 300 to 1500 m/z. The mass spectra were deconvoluted using the Xtract option within the QualBrowser application of the Thermo Xcalibur software v.4.2.47.

[1] = molecular target: T1, recombinant human CD13 (rCD13) (Homo sapiens, UniProt P15144); assay: rCD13 enzyme inhibition assay, L-alanine 7-amido-4-methylcoumarin substrate; type: biochemical
T1 construct: consisting of the CD13 extracellular domain expressed in HEK-293 cells; His-tag; purchased Sino Biological 10051-H08H; host or cells: HEK-293 cells
T1 sequence (P15144 33-967 limits assumed): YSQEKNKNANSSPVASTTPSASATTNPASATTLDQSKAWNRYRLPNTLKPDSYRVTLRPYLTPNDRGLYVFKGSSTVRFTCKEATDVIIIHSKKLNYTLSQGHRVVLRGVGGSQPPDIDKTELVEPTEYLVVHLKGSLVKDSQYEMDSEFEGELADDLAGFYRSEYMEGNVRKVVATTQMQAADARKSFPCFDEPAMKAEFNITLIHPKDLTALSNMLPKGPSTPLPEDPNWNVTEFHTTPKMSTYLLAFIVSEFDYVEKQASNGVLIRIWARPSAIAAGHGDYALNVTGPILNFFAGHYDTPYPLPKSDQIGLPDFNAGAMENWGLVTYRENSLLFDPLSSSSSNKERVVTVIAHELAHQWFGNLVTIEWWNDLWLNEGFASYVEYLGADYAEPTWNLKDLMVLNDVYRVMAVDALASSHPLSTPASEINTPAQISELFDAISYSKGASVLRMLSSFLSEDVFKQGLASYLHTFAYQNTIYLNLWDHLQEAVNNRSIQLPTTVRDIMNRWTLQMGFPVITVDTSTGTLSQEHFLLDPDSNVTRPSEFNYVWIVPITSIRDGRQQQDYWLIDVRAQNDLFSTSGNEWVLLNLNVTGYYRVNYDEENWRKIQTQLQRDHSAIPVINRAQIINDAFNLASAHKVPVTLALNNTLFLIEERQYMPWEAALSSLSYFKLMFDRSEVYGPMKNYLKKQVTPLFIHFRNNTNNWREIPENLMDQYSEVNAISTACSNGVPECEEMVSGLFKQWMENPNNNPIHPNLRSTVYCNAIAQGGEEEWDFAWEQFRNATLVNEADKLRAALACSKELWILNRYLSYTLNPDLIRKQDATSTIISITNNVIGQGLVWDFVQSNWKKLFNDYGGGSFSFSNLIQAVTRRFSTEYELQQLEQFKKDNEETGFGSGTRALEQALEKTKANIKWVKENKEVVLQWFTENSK
Method: Recombinant CD13 (rCD13) enzyme activity and inhibition assays were performed as described previously using L-alanine-p-nitroanilide or L-alanine 7-amido-4-methylcoumarin as substrates in 60 mM Tris–HCl, pH 7.4, or 60 mM potassium phosphate buffer, pH 7.4. Mixtures containing peptides at various concentrations, rCD13 (0.2 µg/mL), and L-alanine-p-nitroanilide substrate (0.5 mM) in 60 mM potassium phosphate buffer, pH 7.4 (total volume, 0.1 ml) were prepared and left to react for 30 min at 37 °C. The products were then analyzed using a plate reader (iMark Microplate Absorbance Reader; Bio-Rad). Alternatively, the assay was performed using 0.1 mM L-alanine 7-amido-4-methylcoumarin in 60 mM Tris–HCl, pH 7.4, as a substrate. Fluorescence intensity of methylcoumarin was measured on an Infinite 200 PRO plate reader (Tecan) using the following settings: excitation wavelength: 341 nm; emission wavelength: 441 nm; excitation bandwidth: 9; emission bandwidth: 20 nm; gain: 109 manual; number of flashes: 25; integration time: 20 µs; lag time: 0 µs; settle time: 0 ms.
The IC50 of each inhibitor was calculated by non-linear regression analysis of inhibition data using GraphPad Prism Software (GraphPad Software, Version 9.00, San Diego, CA). Steady-state enzyme kinetic analyses were performed using various concentrations of L-alanine-p-nitroanilide (0–1.5 mM) and VGCARRYCS peptide (0–900 nM). The initial velocities (Vo) were calculated from the slopes of the first 5 min of reaction. The enzyme inhibitory constant (Ki) was calculated using the competitive enzyme inhibition model in GraphPad Prism Software.
Fig. 2 G4 recognizes soluble forms of CD13, with higher affinity and selectivity than bestatin, and the membrane forms expressed on the surface of HUVEC cells. A Inhibitory effects of G4 and bestatin on the enzymatic activities of different aminopeptidases (rCD13, APA, and APB). Various amounts of G4 or bestatin were incubated with rCD13 (0.2 µg/mL in 60 mM Tris–HCl pH 7.4), APA (0.2 µg/mL in 60 mM Tris–HCl pH 7.4, 50 mM calcium chloride, 200 mM sodium chloride) or APB (0.2 µg/mL in 60 mM Tris–HCl pH 7.4, 100 mM potassium chloride) and the corresponding substrates at 0.1 mM (L-alanine-7-amido-4-methylcoumarin for rCD13, L-glutamic acid γ-(7-amido-4-methylcoumarin) for APA, and L-arginine-7-amido-4-methylcoumarin for APB). The mixtures were incubated for 30 min at 37 °C, and the cleavage of each substrate was monitored by measuring the fluorescence of methylcoumarin (λex 341 nm; λem 441 nm) using an Infinite 200 PRO plate reader (Tecan). Three independent experiments were performed for each enzyme. The results of one representative experiment for each enzyme are shown (mean ± SEM, duplicates). B Inhibitory effects of G4 and bestatin on soluble CD13 immunocaptured from human serum (sCD13) using microtiter plates coated with anti-CD13 mAb WM15. The microtiter plate was filled with a solution of mAb WM15 (5 μg/ml in DPBS) and incubated overnight at 4 °C. The plate was then washed with DPBS, blocked with 3% bovine serum albumin (BSA) in DPBS, and filled with human serum containing soluble CD13 (diluted 1:2 with DPBS containing 2% BSA). After washing with DPBS, mixtures of G4 or bestatin (0–100 µM in 60 mM Tris–HCl, pH 7.4) and L-alanine p-nitroanilide hydrochloride substrate (4.5 mM in 60 mM Tris–HCl, pH 7.4) were added and left to incubate at 37 °C for 2 h. Substrate cleavage by sCD13 dissociated from mAb WM15 was then monitored by measuring the absorbance at 405 nm in each well using a plate reader (Bio-Rad). The results of one experiment performed in triplicate are shown (mean ± SEM). C Effect of G4 on the binding of the anti-CD13 mAb WM15 to HUVEC. HUVEC were seeded at a density of 2 × 10^5 cells in 100 µL DPBS supplemented with 5% normal human serum (NHS) and incubated with a mixture of G4 peptide (0, 0.1, 1, and 10 µM) and mAb WM15 (0 or 0.13 nM) as indicated. […]

WEHI-164 fibrosarcoma = assay: Antitumor activity in WEHI-164 fibrosarcoma-bearing mice; type: in vivo
Method: Female BALB/c mice (Charles River Laboratories, Calco, Italy), weighing 16–18 g, were subcutaneously injected into the left flank of 10^6 WEHI-164 cells (ATCC, cat. CRL-1751, Lot. 63,682,839). Dose-finding experiments were performed with groups of six mice treated with G4-TNF (4, 20, or 100 pg/dose in 100 μL of 0.9% sodium chloride containing 100 µg/ml HSA, intraperitoneally injected on day 5) or vehicle. Tumor growth was monitored daily by measuring tumor volume with calipers, as previously described. The animals were sacrificed before the tumor diameter reached 1.0–1.5 cm. To test whether the antitumor activity of G4-TNF was mediated by CD13, tumor-bearing mice (6 animals/group) were treated with a single injection of G4-TNF (100 pg/dose, i.p.) in combination with peptide CNGRC (100 µg/dose) or anti-CD13 mAb R3-63 (25 µg/dose, given 1.5 h i.p. before administration of G4-TNF) 5 days after tumor implantation.
Fig. 3 Effect of G4-TNF on tumor growth and body weight of mice bearing WEHI-164 fibrosarcomas. A Mice bearing subcutaneous WEHI-164 tumors (5–6 mice/groups) were treated 5 days after tumor implantation with a single intraperitoneal injection of G4-TNF (0, 4, 20, or 100 pg). Tumor volume and body weight after treatment were monitored daily. B Effect of mAb R3-63 (anti-murine CD13 antibody, 25 µg) and CNGRC peptide (100 µg) on the antitumor activity of G4-TNF (100 pg) (5–6 mice/group). The arrows indicate the time of treatment. *P < 0.05; **P < 0.01, by Mann–Whitney analysis of the area under the curve for each tumor, with the GraphPad Prism software (mean ± SEM)
A) Mice bearing subcutaneous WEHI-164 tumors (6 mice/groups), were treated 5-6 days after tumor implantation with a single intraperitoneal injection of murine NGR-TNF (0, 25, 50, or 100 pg). Tumor volume and body weight after treatment were monitored daily.
B) Effect of murine TNF (50 pg) on tumor growth and body weight. The arrows indicate the time of treatment (mean ± SEM).

[2] = system: rCD13 (His-tagged recombinant human CD13); assay: rCD13 (2 µg/mL) in 60 mM Tris-HCl, pH 7.4; settings: 37°C, up to 16 h
[3] = molecular target: T2, His-tagged recombinant human CD13 (rCD13) (human, UniProt P15144 33-967); assay: steady-state enzyme inhibition kinetics; rCD13 with L-alanine-p-nitroanilide (0-1.5 mM) and … (0-900 nM), 60 mM potassium phosphate buffer, pH 7.4, 37 °C; initial velocities of the first 5 min; competitive enzyme inhibition model (GraphPad Prism); settings: both partners purified
T2 construct: aminopeptidase N / CD13, human, extracellular domain (soluble ectodomain); also called recombinant soluble CD13; recombinant CD13 ectodomain; source: bought: Sino Biological (cat. 10051-H08H), expressed in HEK-293 cells
T2 sequence (P15144 33-967): as the sequence (P15144 33-967 limits assumed) above

[4] = molecular target: His-tagged recombinant human CD13 (rCD13) (human) (UniProt P15144)
His-tagged recombinant human CD13 (rCD13) (human), sequence (P15144 33-967): as the sequence (P15144 33-967 limits assumed) above

## CC(C)[C@H](N)C(=O)NCC(=O)N[C@H]1CSSC[C@@H](C(=O)N[C@@H](CO)C(=O)O)NC(=O)[C@H](Cc2ccc(O)cc2)NC(=O)[C@H](CCCNC(=N)N)NC(=O)[C@H](CCCNC(=N)N)NC(=O)[C@H](C)NC1=O [G4] (H-VGCARRYCS-OH; disulfide 3-8)
rCD13
  Cleavage of the peptide by rCD13 (stability): cleavage of Val-1 and Gly-2 was observed only after a long incubation time (16 h) with a large amount of enzyme (2 µg/ml)
[1]; 0.1 mM L-alanine 7-amido-4-methylcoumarin, 60 mM Tris-HCl pH 7.4, fluorescence, mean ± SEM of n independent experiments, read-out: IC50: peptide concentration that inhibits 50% of rCD13 enzymatic activity
  IC50: 130 ± 20 nM
[1]; Fig. 2A
  IC50 of G4 for rCD13 lower than that of bestatin: 4–5 fold

## CNGRC [reference compound]
WEHI-164 fibrosarcoma; G4-TNF 100 pg i.p. with mAb R3-63 25 µg (1.5 h before) or CNGRC 100 µg
  Effect on the antitumor activity of G4-TNF: markedly reduced (almost completely)

## VGCARRYCS
[2]
  cleaved bond: Val1-Gly2, 16 h; also recorded: Gly2-Cys3, 16 h

B1: TNF: murine TNF (not linked to G4) (protein)
chain: MSTESMIRDVELAEEALPQKMGGFQNSRRCLCLSLFSFLLVAGATTLFCLLNFGVIGPQRDEKFPNGLPLISSMAQTLTLRSSSQNSSDKPVAHVVANHQVEEQLEWLSQRANALLANGMDLKDNQLVVPADGLYLVYSQVLFKGQGCPDYVLLTHTVSRFAISYQEKVNLLSAVKSPCPKDTPEGAELKPWYEPIYLGGVFQLEKGDQLSAEVNLPKYLDFAESGQVYFGVIAL
WEHI-164 fibrosarcoma; single intraperitoneal injection of 50 pg
  Antitumor effect (tumor growth): totally inactive

B2: peptide VGCARRYCS (disulfide-bridged, called G4) (peptide)
peptide: VGCARRYCS
modifications: disulfide 3-8 (inferred)
notes: optimised CD13 ligand peptide; also called free G4 peptide; source: synthetic peptide
[3]
  Ki: 21 nM and ~22 nM

B3: peptide … (disulfide-bridged) (peptide)
peptide: VGCGRRYCSN
modifications: disulfide 3-8 (inferred)
[4]
  IC50 of inhibition of rCD13 enzymatic activity (L-alanine-p-nitroanilide substrate): 2010 nM
